From the SangsterLogP compilation

Point of comparison: `CCC(=O)C(CCN(C)C)(c1ccccc1)c1ccc(OC)cc1` (stereo not drawn), logP 4.28. Against it:
- CCC(=O)C(CCN(C)C)(c1ccccc1)c1ccc(C)cc1 (stereo not drawn) — higher, 4.93
- CCC(=O)C(CCN(C)C)(c1ccccc1)c1ccc(Cl)cc1 (stereo not drawn) — higher, 4.9
- CCC(=O)C(CCN(C)C)(c1ccccc1)c1ccc(O)cc1 (stereo not drawn) — lower, 3.45
- CCC(=O)C(CCN(C)C)(c1ccccc1)C1CCCCC1 (stereo not drawn) — higher, 5.13
- CCC(=O)C(CCN(C)C)(c1ccccc1)C1CCCC1 (stereo not drawn) — higher, 4.53
- CCC(=O)C(CCN(C)C)(c1ccccc1)C1CCCCCC1 (stereo not drawn) — higher, 5.91
- CCC(=O)C(CCN(C)C)(c1ccc(F)cc1)c1ccc(F)cc1 — higher, 4.84
- CCC(=O)C(CCN(C)C)(c1ccccc1)c1ccc(Br)cc1 (stereo not drawn) — higher, 5.23
- CCC(=O)C(CCN(C)C)(c1ccccc1)c1ccccc1 — within 0.2 log units, 4.15
- CCC(=O)C(CCN(C)C)(c1ccccc1)c1ccc(SC)cc1 (stereo not drawn) — higher, 4.96
- CCC(=O)C(CCN(C)C)(c1ccccc1)c1cccc(F)c1 (stereo not drawn) — within 0.2 log units, 4.17
- CCC(=O)C(CCN(C)C)(c1ccccc1)c1ccc(F)cc1 (stereo not drawn) — within 0.2 log units, 4.19
